One data set has as its system CCRF-CEM cell line. In words: Inhibition of growth of human leukemic cells (CCRF-CEM Cytotoxicity Screen). Format: cell-based. The following applies: in vitro, read-out: IC50 (concentration giving 50% growth inhibition).
Data set [1] deals with X-5563 (multiple myeloma). In words: Activity against X-5563 (multiple myeloma) tumor maintained in C3H mice. Format: in vivo. Conditions: I.P. daily for 10 days, tumors measured days 10 to 12. As to the method:
(§1) The following protocol was employed. The tumor was removed from passage animals and minced into 1 to 3 mm square fragments using sterile techniques. Tumor pieces were checked for sterility using both Antibiotic Medium 1 and Brain Heart Infusion (Difco; Detroit, MI). Recipient mice were shaved and tumor pieces were implanted subcutaneously in the axillary region by trocar. Drug therapy on the appropriate schedule was initiated on the day after tumor implant. The compound was dissolved in saline for all experiments. All animals were weighed at the beginning and end of drug treatment. Food and water were provided ad libitum. Each test group contains 5 animals. On days 10 to 12, two dimensional measurements (width and length) of all tumors were taken using vernier calipers. Tumor weights were calculated from these measurements using the following formula:
Tumor Weight (mg)=Tumor Length (mm) X Tumor Width (mm)^2 /2
(§2) For all data, the tumor weight was rounded to the nearest tenth of a gram for analysis. No group is included in the analysis for therapeutic activity in which deaths attributable to drug toxicity exceeded 30 percent of the treated group.
(§3) In Table 2 which follows, column 1 gives the name of the compound; column 2, the dose level; column 3, the percent inhibition of the tumor; and column 4, the toxic deaths. Drug and control doasges were administered I.P. daily for 10 days.

A short description of data set [2]: Toxic deaths in the X-5563 (multiple myeloma) tumor test. Conditions: I.P. daily for 10 days. Format: in vivo, C3H mice. The method, then:
as §1, with “formula: […]” for “formula:”
as §2, §3

Where a name gives a salt, the structure may show the parent alone.

In the case of `CCCCC/C=C\C/C=C\CCCCCCCC(COP(=O)([O-])OCC[N+](C)(C)C)OC` (racemic) [(Z,Z)-(±)-2-Methoxy-1-[(2-trimethylaminoethoxy)phosphinyloxy]-10,13-nonadecadiene, hydroxy inner salt], the IC50 with CCRF-CEM cell line came to 4.2 µg/mL.

Consider `CCCCCCCC/C=C\CCCCCCCC(COP(=O)([O-])OCC[N+](C)(C)C)OCC` (racemic) [(Z)-(±)-2-ethoxy-1-[(2-trimethylaminoethoxy)phosphinyloxy]-10-nonadecene, hydroxy inner salt], for which, in data set [1] (50 mg/kg), the “Percent Inhibition of Tumor” value is 47%. For the same compound, the IC50 with CCRF-CEM cell line was found to be 1.6 µg/mL. Further, in data set [2] (50 mg/kg), the “Toxic Deaths” value is reported as 1/10.

`CCCCC/C=C\C/C=C\CCCCCCCC(COP(=O)([O-])OCC[N+](C)(C)C)OCC` (racemic) [(Z,Z)-(±)-2-Ethoxy-1-[(2-trimethylaminoethoxy)phosphinyloxy]-10,13 nonadecadiene, hydroxy inner salt]: the “Percent Inhibition of Tumor” value in data set [1] (70 mg/kg) came out at 31%. In the data set with CCRF-CEM cell line, the IC50 came out at 6 µg/mL. In data set [2] (70 mg/kg), the “Toxic Deaths” value is 2/10.

Source of the values: patent US4647685A, “2-alkoxy-1-((2-trialkylaminoethoxy)phosphinyloxy)-alkenes and alkynes, hydroxy inner salts” (Eli Lilly and Company, priority 1985, dated 1987).
